In assay [1] the test system is M. bovis BCG. The following applies: broth microdilution, 10^6 CFU/mL, 7 days, 37°C, OD595 and visual.
Assay [2] relates to M. tuberculosis CSU87. The following applies: 7 days, CFU enumeration, three independent experiments.
Assay [3] concerns MDR clinical isolate M. tuberculosis CSU87. The conditions noted are these: broth microdilution, 10^6 CFU/mL, 7 days, 37°C, OD595 and visual.

In brackets after ≈: the same amount, converted by molar mass. Like-named read-outs stand apart in the source and are kept apart here. Where a SMILES comes first, the peptide text is derived from it. [ ]: non-standard residue; d: D form. Nspe = C[C@H](NCC(=O)O)c1ccccc1; NHexGly = CCCCCCNCC(=O)O; Nlys = NCCCCNCC(=O)O

Take `CCCCCCNCC(=O)N(CC(=O)N(CCCCN)CC(N)=O)[C@@H](C)c1ccccc1` [BM 1]: the “MIC BCG” value in assay [1] is 16 to 32 µg/mL.

`CCCCCCNCC(=O)N(CC(=O)N(CCCCN)CC(=O)N(CCCCCC)CC(=O)N(CC(=O)N(CCCCN)CC(N)=O)[C@@H](C)c1ccccc1)[C@@H](C)c1ccccc1` [BM 2] (H-[NHexGly][Nspe][Nlys][NHexGly][Nspe][Nlys]-NH2): the “killing of CSU87” value in assay [2] (2 × MIC (8 mg/L)) is greater than 99%; in assay [2] (4 × MIC (16 mg/L)), 99.9%. The “MIC CSU87” value in assay [3] worked out at 4 µg/mL (≈ 4.55 µM). For the same compound, the “MIC BCG” value in assay [1] fell in the range of 2 to 4 µg/mL.

As to `CCCCCCNCC(=O)N(CC(=O)N(CCCCN)CC(=O)N(CCCCCC)CC(=O)N(CC(=O)N(CCCCN)CC(=O)N(CCCCCC)CC(=O)N(CC(=O)N(CCCCN)CC(N)=O)[C@@H](C)c1ccccc1)[C@@H](C)c1ccccc1)[C@@H](C)c1ccccc1` [BM 3] (H-[NHexGly][Nspe][Nlys][NHexGly][Nspe][Nlys][NHexGly][Nspe][Nlys]-NH2), the “MIC CSU87” value in assay [3] worked out at 16 µg/mL (≈ 12.2 µM). In addition, the “MIC BCG” value in assay [1] lay in the range of 4 to 8 µg/mL.

The record behind these values is PMC7089965 (Frontiers in Microbiology, 2020).
